From patent US20080153792A1, “Drug Identification and Treatment Method” (priority 2006, published 2008)
Read-outs that look alike come from different tables or passages of the source.

Tests used:
[1] = tested on: BALB/C mice, TNP-OVA sensitized; assay: reporter antigen popliteal lymph node (PLN) assay; assay type: in vivo, mouse; details: 5 μg/day by subcutaneous injection; day 5
Source text: Analysis of immune suppression. Glucocorticoid steroids such as dexamethasone or hydrocortisone are typically immune suppressive and have significant toxicities associated with their use. Immune suppression was examined in a reporter antigen popliteal lymph node assay in mice essentially as previously described (C. Goebel et al., Inflamm. Res., 45(Suppl. 2):S85-S90, 1996; R. Pieters et al., Environmental Health Perspectives 107(Suppl. 5):673-677,1999). […] In this protocol, the vehicle was 0.1% carboxymethylcellulose, 0.9% saline, 2% tween 80 and 0.05% phenol, which contained 17α-ethynylandrost-5-ene-3β,7β,17β-triol in suspension in drug treated animals. Assessment of activity included (1) measuring suppression of numbers of total lymphocytes, antigen specific IgM, IgG1 and IgG2a antibody secreting cells (ASC) (ELISPOT assay) in popliteal lymph node cells; (2) analysis of cell surface marker (CD4, CD8, CD19, F480, CD80, CD86) expression by flow cytometry of living cells in suspension; and (3) IL-4, TNFα and IFNγ production by lymphocytes in vitro (ELISA).
Groups (n=5 per group) of specific pathogen free BALB/C mice were used. The Positive control group was treated with vehicle (oral gavage) and 5 μg/day dexamethasone by subcutaneous injection to induce immune suppression. Vehicle control animals (negative control) were treated with vehicle alone (oral gavage). One group of animals was treated with 17α-ethynylandrost-5-ene-3β,7β,17β-triol at 0.1 mg/day by oral gavage. Another group was treated with 1 mg/day of 17α-ethynylandrost-5-ene-3β,7β,17β-triol was administered to the animals oral gavage. The results were analyzed by two-tailed Student's t-test with equal variance. The animals were injected in the right hind footpad with 50 μL of freshly prepared sensitizing dose of TNP-OVA. Dexamethasone (decadron phosphate injection; dexamethasone sodium phosphate) was administered by subcutaneous injection into the nape of the neck daily, immediately following sensitization with TNP-OVA. 17α-Ethynylandrost-5-ene-3β,7β,17β-triol was given immediately afterwards by gavage. Five days after injection of TNP-OVA, blood was drawn by orbital puncture, and the mice were euthanized by cervical dislocation and popliteal lymph nodes were removed and separated from adherent fatty tissue. Single cell suspensions were prepared, resuspended in 1 mL PBS-BSA (1%) and counted. Cell numbers, IL-4, IL-5 and IFNγ were measured.

[2] = tested on: mice treated daily with dexamethasone; assay: osteoprotegerin levels in dexamethasone treated mice; assay type: in vivo, mouse; details: vehicle and dexamethasone at 10 μg/day for 23 days (positive control group)
Experimental: Osteoprotegerin levels in mice that were treated with vehicle and dexamethasone at 10 μg/day (positive control group) had 3.3 pMol/L osteoprotegerin, while animals treated with vehicle, dexamethasone and 17α-ethynyl-5-androstene-3β,7β,17β-triol at 4 mg/kg/day had 6.4 pMol/L osteoprotegerin (p<0.05).

NF-κB = assay: NF-κB-bla THP-1 β-lactamase reporter assay; assay type: cell-based, human
MG-63 cells = assay: reversal of glucocorticoid effects in MG-63 osteosarcoma cells; assay type: cell-based, human; details: dexamethasone 30 nM
[3] = tested on: BALB/c mice, OVA sensitized and challenged; assay: ovalbumin (OVA) sensitized mouse model of asthma; assay type: in vivo; details: for IL-13: s.c. once daily, dexamethasone 5 mg/kg, compound 1 mg/mouse
Experimental: BALB/c mice were sensitized by intraperitoneal injection with OVA (in alum adjuvant) on days 1, and 12. Airways were challenged with OVA on days 28 and 30 by delivery of OVA to the lung, or with saline. […] The remaining animals were divided into 6 groups (6 mice per group). Groups of the mice were treated once daily by subcutaneous injection as follows. Group 1 vehicle control (0.1% carboxymethyl cellulose, 0.9% saline, 2% tween 80, 0.05% phenol). Group 2 dexamethazone (5 mg/kg). Group 3 3α,16α,17α-trihydroxyandrostane (1 mg/mouse). Three animals in groups 1-3 were sacrificed on day 35 at 1 hr after final treatment and the remaining 3 animals in groups 1-3 were sacrificed on day 38.

[4] = tested on: mice, LPS induced lung injury; assay: lung injury by sublethal LPS to trachea and lungs, BAL cell count; assay type: in vivo, mouse; details: oral gavage 24 h before and 1 h after 100 μg LPS; 48 hours
Experimental: In another assay, the capacity of 16α-bromoepiandrosterone and 3β,16α-dihydroxy-17-oxoandrostane to protect against lung injury induced by exposure to a sublethal amount of LPS in mice was shown. In this assay, the compounds, sterile saline (negative control) or vehicle (vehicle control) were administered to groups of 5 mice by oral gavage at 24 hours before and 1 hour after administration of 100 μg of LPS to the trachea and lungs of animals under light anesthesia. At 48 hours the animals were sacrificed and samples were obtained from the lungs of the animals by bronchiolar alveolar lavage (BAL). The numbers of cells in the BAL fluid were counted, with high numbers of cells showing lung inflammation and damage. In this assay, cells that mediate inflammation and lung damage infiltrate into the lungs in response to the presence of the LPS. In the negative control and vehicle control groups, the BAL fluid contained about 6×10^7 cells/mL. […] Other compounds, e.g., 17α-ethynylandrost-5-ene-3β,7β,17β-triol or 17β-aminoandrost-5-ene-3β-ol, can be characterized in a similar manner.

[5] = tested on: γ-interferon production by human whole blood; assay: γ-interferon production in human whole blood exposed to LPS; assay type: cell-based; details: LPS 24 hours; 16α-bromoepiandrosterone at 100 ng/mL
Experimental: Anti-inflammation activity in human cells in vitro. […] The amount of γ-interferon was measured in the growth medium when the cells had been incubated in the presence of LPS for 24 hours.

[6] = tested on: human peripheral blood mononuclear cells (PBMC); assay: human mixed lymphocyte reaction (MLR); assay type: cell-based; details: either 300 nM or 30 nM; 6 days; p>0.05
Experimental: Human mixed lymphocyte reaction (MLR). The capacity of 3β,16α-dihydroxy-17-oxoandrostane, 3β,17β-dihydroxy-16-oxoandrostane, 17α-ethynylandrost-5-ene-3β,7β,17β-triol, and 17β-aminoandrost-5-ene-3β-ol to affect antigen specific stimulation in which human T lymphocytes respond to a specific foreign antigen (major histocompatibility complex).
Blood samples were obtained from 3 (2 males, […]) fasting, healthy human volunteers of 23-31 years old. […] The subjects were bled between […] to limit possible fluctuations in the circulating levels of hormones or cytokines that could have influenced the in vitro responses of their lymphocytes. Peripheral blood mononuclear cells (PBMC) were isolated by centrifugation on Ficoll-Hypaque (density 1.077, Biochrom AG, Berlin, Germany) gradients and resuspended in culture medium (RPMI 1640 supplemented with 2 mM L-glutamine, penicillin (100 U/mL) and streptomycin ([…]) (Invitrogen s.rl., Milan, Italy). Autologous (responder) inactivated plasma was used at 10%. Five hundred thousand responder PBMC (PBMCr) and 500,000 allogeneic irradiated (30 Gy) stimulator PBMC (PBMCs) were mixed at a ratio of 1:1 in 200 μL medium and cultured for 6 days in flat bottom 96 well plates (Nunc, Roskilde, Denmark) at a concentration of 300 nM or 30 nM for each of the 4 compounds. The compounds were dissolved in ethanol and then diluted to the desired concentration with culture medium leading to a final solution containing 0.01% of ethanol. This vehicle was used as control. Controls also included PBMCr and PBMCs cultured separately. During the last 8 hours of the culture period the PBMC were pulsed with 1 μCi/well [^3H] thymidine (Amersham, Milan, Italy). The cells were then harvested and radioactivity incorporation measured with a beta cell counter. The mean cpm of quadruplicate wells was calculated. Proliferation of T cells was expressed as a stimulation index: SI=cpm (PMBCs xPBMCr)/cpm (PBMCr)+cpm (PBMCs). Statistical analysis was performed using the Student's t test. The cpm obtained from quadruplicate of each test compound were compared to proliferative responses obtained in control PBMCr and PBMCs cultured in the presence of the vehicle. Differences were considered significant at p<0.05.

[7] = tested on: mice given a lethal amount of LPS; assay: lethal shock protocol, lethal amount of bacterial LPS; assay type: in vivo, mouse; details: second assay; oral gavage 24 h before and 1 h after LPS
Experimental: Treatment of lethal inflammation/shock. Two compounds, 16α-bromoepiandrosterone (3β-hydroxy-16α-bromoandrostane-17-one) and 3β,16α-dihydroxy-17-oxoandrostane, were used in a lethal shock protocol. In one protocol, 3 mg of 16α-bromoepiandrosterone was administered to one group of animals by oral gavage, while another group received 3 mg of 16α-bromoepiandrosterone by subcutaneous injection. A group of control animals received a placebo control. In this protocol, the 16α-bromoepiandrosterone was administered to mice at 24 hours before and at 1 hour after administration of a lethal amount of bacterial lipopolysaccharide (LPS). By the end of the observation period, 72 hours after LPS administration, none of the vehicle treated placebo control animals had survived, while 65% of animals that received 16α-bromoepiandrosterone by oral administration survived. 50% of the animals that received 16α-bromoepiandrosterone by subcutaneous injection survived. Animals that survived for 72 hours all recovered from the LPS exposure.
In a second assay, 16α-bromoepiandrosterone or 3β,16α-dihydroxy-17-oxoandrostane was administered to mice by oral gavage at 24 hours before and 1 hour after administration of a lethal amount of LPS. A vehicle treated group of animals was used as the placebo control.

[8] = metabolic stability in liver microsomes, species not stated; assay type: in vitro ADME; details: compared with androst-5-ene-3β,17β-diol reference compound
Experimental: The protocol was performed as follows. […] (2) Set up samples as follows. […] (4) The internal standard/acetonitrile solution.

[9] = tested on: CD1 male mice, carrageenan-λ induced pleurisy; assay: carrageenan-λ induced lung (pleural cavity) inflammation in mice; assay type: in vivo, mouse; details: for number of neutrophils relative to untreated carrageenan-λ control (100%): 4 h after carrageenan
[10] = tested on: bone marrow-derived mast cells (BMMC); assay: mast cell stimulus-coupled degranulation (glucuronidase release); assay type: cell-based, mouse
Experimental: In another protocol, a population of mast cells was cultivated from murine bone marrow as follows. Briefly, bone marrows from Balb/C mice were flushed from the femur using PBS and a 27 g needle. The cells were cultured in a mixture of ⅔ RPMI-1640 with 19% FBS and cells that secreted IL-3. The bone marrow cells were allowed to differentiate for 18-25 days in the IL-3-containing mixture before being used for experiments. Bone marrow cells cultured in this manner have a phenotype similar to mucosal mast cells and are referred to as bone marrow-derived mast cells (BMMC).
The homogeneity of the in vitro propagated mast cells was checked by conventional flow cytometry techniques and staining for cell-type specific markers. Between days 14 and 21 of propagation, mature mast cells were harvested and prepared for the test cultures. The objective was to assess of the effect of compounds such as dehydroepiandrosterone on mast cell stimulus-coupled degranulation. Prepared mast cells were dispensed into test culture wells at a density of 1×10^7 cells/mL. In control cultures, mast cells were induced to degranulate after cross linking of IgE receptors with IgE antigen-antibody complexes. […] There was no detectable degranulation of mast cells as measured by release of […] from cytosolic storage granules of the cells in the absence of the stimulus. […]

## C[C@@H]1C[C@H]2[C@@H]3CCC4=CC(=O)C=C[C@]4(C)[C@@]3(F)[C@@H](O)C[C@]2(C)[C@@]1(O)C(=O)CO [dexamethasone, reference compound]
[1]
  average number of lymphocytes in PLNs: 2.9×10^6 per lymph node
[2]
  osteoprotegerin: 3.3 pmol/L
NF-κB; Homo sapiens, THP-1, TNFα stimulation, average of 5 assays, read-out: EC50 for decreasing the effect of TNFα
  EC50: 0.00047 µM
NF-κB; this protocol
  maximum NF-κB inhibition: 100%
MG-63 cells; compounds at 10 nM in the presence of 30 nM dexamethasone, vehicle control 0.25
  11β-HSD mRNA: 1.0 units
MG-63 cells; compounds at 10 nM in the presence of 30 nM dexamethasone, vehicle control 0.90
  IL-8: 0.12 units
MG-63 cells; compounds at 10 nM in the presence of 30 nM dexamethasone, vehicle control 6.2
  IL-6: 1.3 pg/mL
MG-63 cells; vehicle control 445
  osteoprotegerin: 280 pmol/L
[3]; day 35
  IL-13: 340 pg/mL
[3]; day 38
  IL-5 in lung tissue: 145 pg/mL
  IL-13: 390 pg/mL

## C[C@]12CC[C@H](O)CC1CC[C@@H]1[C@@H]2CC[C@]2(C)C(=O)[C@H](O)C[C@@H]12 (stereo partly drawn) [3β,16α-dihydroxy-17-oxoandrostane]
[4]
  cell counts in the BAL fluid: about 4.4×10^7 cells/mL
[5]
  production of γ-interferon: Reduced production
[6]
  immune suppression in the MLR: not appreciably immune suppressive
NF-κB; Homo sapiens, THP-1, read-out: IC50 for inhibition of NF-κB activation, after LPS stimulation, 50% of the maximum inhibition the compound can induce, averages of 2-4 assays
  IC50: > 10 µM
[7]
  survival at 72 hours: 50%
[8]
  metabolism by microsomes: metabolized by microsomes at a rate similar to the androst-5-ene-3β,17β-diol reference compound
[9]; 0.001 mg dose s.c.
  neutrophils in the pleura / pleural exudate: inactive
[9]; 0.001 mg s.c. 24 h and 1 h before carrageenan-λ
  number of neutrophils relative to untreated carrageenan-λ control (100%): 97%
[9]; 0.01 mg s.c. 24 h and 1 h before carrageenan-λ
  number of neutrophils relative to untreated carrageenan-λ control (100%): 73%
[9]; 0.1 mg and 0.01 mg doses s.c.
  number of neutrophils in the pleura: significant reduction
[9]; 0.1 mg dose s.c.
  volume of pleural exudate: significantly reduced
[9]; 0.1 mg s.c. 24 h and 1 h before carrageenan-λ
  number of neutrophils relative to untreated carrageenan-λ control (100%): 73%
[9]; s.c.
  potency compared with polyclonal anti-TNF-α antibody control: less potent

## C[C@]12CC[C@H](O)CC1=CC[C@@H]1[C@@H]2CC[C@]2(C)C(=O)CC[C@@H]12 [dehydroepiandrosterone]
[10]; Mus musculus, BMMC, 100 μM, 5 to 10 minutes before activation with anti-IgE antigen-antibody complexes
  inhibition at 100 µM: ~70%
[10]; no stimulus
  degranulation by compound alone: no measurable degranulation
NF-κB; Homo sapiens, THP-1, read-out: IC50, this protocol
  IC50: > 10 µM
